# Data published in paper PMC10730852 (Communications Biology, 2023).
# “And” between values parts separate entries of the source, which are not always exact repeats. Identical values can stand only once. Like-named read-outs stand apart in the source and are kept apart here.
# Key:
# Cph [1] = test system: Cph; set-up: method as in Previous kinetic studies; conditions: ATP as a phosphate donor; ref Previous kinetic studies; read-out: Km value of Cph for CMN IIA; cited from earlier work
# Cph [2] = experiment: Coupled enzyme assay and kinetics of Cph; type: biochemical, Saccharothrix mutabilis subsp. capreolus; conditions: for absorbance at 340 nm, Average of triplicate: substrate + ATP
# Description: (§1) The phosphorylation reaction was measured by a coupled enzyme assay as following. […] The reactions were mixed well in a final volume of 200 μL in 96-well plates. The Cph001 activity was assayed by determining the oxidation of NADH at 340 nm. The reaction buffer and enzyme concentration of the Cph reaction was followed by previous study. The 340 nm absorbance changes were detected at 30 °C for every 1 min at a time in 15 min on an EPOCH Microplate Reader (BioTek). All reactions were carried out in triplicate.
# E. coli/cph = experiment: Disk diffusion assay; type: cell-based, E. coli BL21 Rosetta (DE3)
# Description: (§2) The E. coli BL21 Rosetta (DE3) strains containing pET22b, and its carrying cph, cph001, cph002, cph003, aph(3′)-Ia, and mphB plasmids were cultured overnight. The cells, respectively, were then diluted to 0.1 OD600 in molten LB agar with 100 μg/mL ampicillin and 500 μM IPTG for the disk diffusion assay. The cells with ampicillin and IPTG were mixed well with molten LB agar and then poured into 10 cm diameter Petri dishes. The 7 mm disks were placed onto the LB agar and gently loaded with varying quantities of CMN IIA, CMN IIB, VIO, Kan, and Ery, ranging from 0 to 200 μg. The Petri dishes were placed in the incubator at 37 °C and the inhibition zones were observed after 24 hr.
# E. coli/cph002 = experiment: Disk diffusion assay; type: cell-based, E. coli BL21 Rosetta (DE3)
# Description: as §2
# E. coli/cph003 = experiment: Disk diffusion assay; type: cell-based, E. coli BL21 Rosetta (DE3)
# Description: as §2
# E. coli/cph001 = experiment: Disk diffusion assay; type: cell-based, E. coli BL21 Rosetta (DE3)
# Description: as §2
# Cph001 [3] = molecular target: T1, Cph001 (Streptosporangium roseum, UniProt D2B3F1); experiment: Isothermal titration calorimetry (ITC) analysis of Cph001; type: binding
# T1 sequence (D2B3F1 1-286): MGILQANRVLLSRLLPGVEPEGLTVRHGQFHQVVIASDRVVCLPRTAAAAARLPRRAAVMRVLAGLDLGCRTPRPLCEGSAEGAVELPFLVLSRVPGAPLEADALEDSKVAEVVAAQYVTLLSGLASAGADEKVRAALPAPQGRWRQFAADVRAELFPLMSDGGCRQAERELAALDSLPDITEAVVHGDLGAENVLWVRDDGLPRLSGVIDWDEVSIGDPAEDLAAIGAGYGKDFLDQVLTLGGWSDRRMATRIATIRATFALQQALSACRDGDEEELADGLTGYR
# Description: The integrated heat areas constitute a differential binding curve that was fitted with a standard single-site binding model by Origin 7.
# Cph001 [4] = experiment: Coupled enzyme assay and Michaelis-Menten kinetics of Cph001; type: biochemical, Streptosporangium roseum; conditions: for initial velocity, Figure 3c ii, Triplicate: 2 mM GTP; for initial velocity, Figure 3c i, Triplicate: 2 mM ATP; for absorbance at 340 nm, Average of triplicate: 2 mM substrate + ATP
# Description: as §1
# The initial velocity data were plotted against substrate concentrations and fit the Michaelis-Menten equation. The Km and Vmax values were calculated based on the Michaelis-Menten equation. GraphPad Prism was used for statistical data analysis. All reactions were carried out in triplicate.
# [5] = test system: E. coli/pET-22b (Control); experiment: Disk diffusion assay; type: cell-based, E. coli BL21 Rosetta (DE3); conditions: Escherichia coli, 24 h, read-out: inhibition zones
# Description: as §2, with “The 7 mm disks were placed onto the LB agar and gently loaded with varying quantities of CMN IIA, CMN IIB, VIO, Kan, and Ery, ranging from 0 to 200 μg.” left out
# [6] = Escherichia coli, 24 h, read-out: inhibition zones
smiles,measurement,setting,value
N=C1NCCC([C@@H]2NC(=O)/C(=C/NC(N)=O)NC(=O)[C@H](CNC(=O)C[C@@H](N)CCCN)NC(=O)[C@H](CO)NC(=O)[C@@H](N)CNC2=O)N1 (stereo in doubt) [CMN IIA],Km,Cph [1],460 µM
same,phosphorylation by Cph in couple enzyme assay,"Cph [2]; CMN IIA and ATP, absorbance at 340 nm",decrease in absorbance at 340 nm
same,"absorbance at 340 nm, Average of triplicate",Cph [2]; time 00:00:00,1.495
same,"absorbance at 340 nm, Average of triplicate",Cph [2]; time 00:01:00,1.379
same,"absorbance at 340 nm, Average of triplicate",Cph [2]; time 00:02:00,1.219
same,"absorbance at 340 nm, Average of triplicate",Cph [2]; time 00:03:00,1.045
same,"absorbance at 340 nm, Average of triplicate",Cph [2]; time 00:04:00,0.85
same,"absorbance at 340 nm, Average of triplicate",Cph [2]; time 00:05:00,0.6453
same,"absorbance at 340 nm, Average of triplicate",Cph [2]; time 00:06:00,0.4483
same,"absorbance at 340 nm, Average of triplicate",Cph [2]; time 00:07:00,0.303
same,"absorbance at 340 nm, Average of triplicate",Cph [2]; time 00:08:00,0.2213
same,"absorbance at 340 nm, Average of triplicate",Cph [2]; time 00:09:00,0.1687
same,"absorbance at 340 nm, Average of triplicate",Cph [2]; time 00:10:00,0.136
same,"absorbance at 340 nm, Average of triplicate",Cph [2]; time 00:11:00,0.1227
same,"absorbance at 340 nm, Average of triplicate",Cph [2]; time 00:12:00,0.1173
same,"absorbance at 340 nm, Average of triplicate",Cph [2]; time 00:13:00,0.1173
same,"absorbance at 340 nm, Average of triplicate",Cph [2]; time 00:14:00,0.1173
same,"absorbance at 340 nm, Average of triplicate",Cph [2]; time 00:15:00,0.1177
same,resistance in disk diffusion assay,E. coli/cph; E. coli harboring cph,becomes resistant
same,zone of inhibition at 50 µg/disc,E. coli/cph; [6],11 mm
same,zone of inhibition at 100 µg/disc,E. coli/cph; [6],13 mm
same,zone of inhibition at 200 µg/disc,E. coli/cph; [6],15.5 mm
same,resistance in disk diffusion assay,E. coli/cph002; E. coli harboring cph002,becomes resistant
same,zone of inhibition at 12.5 µg/disc,E. coli/cph002; [6],14 mm
same,zone of inhibition at 50 µg/disc,E. coli/cph002; [6],17 mm
same,zone of inhibition at 100 µg/disc,E. coli/cph002; [6],19.5 mm
same,zone of inhibition at 200 µg/disc,E. coli/cph002; [6],23 mm
same,resistance in disk diffusion assay,E. coli/cph003; E. coli harboring cph003,becomes resistant
same,zone of inhibition at 12.5 µg/disc,E. coli/cph003; [6],13 mm
same,zone of inhibition at 50 µg/disc,E. coli/cph003; [6],16 mm
same,zone of inhibition at 100 µg/disc,E. coli/cph003; [6],20 mm
same,zone of inhibition at 200 µg/disc,E. coli/cph003; [6],22 mm
same,resistance in disk diffusion assay,E. coli/cph001; E. coli harboring cph001,becomes resistant
same,zone of inhibition at 12.5 µg/disc,E. coli/cph001; [6],9.5 mm
same,zone of inhibition at 50 µg/disc,E. coli/cph001; [6],13 mm
same,zone of inhibition at 100 µg/disc,E. coli/cph001; [6],15 mm
same,zone of inhibition at 200 µg/disc,E. coli/cph001; [6],18 mm
same,Kd,Cph001 [3],1240 ± 80 nM
same,"initial velocity, Figure 3c ii, Triplicate",Cph001 [4]; 0.4 mM CMN IIA,5.814e-5 and 4.992e-5 and 4.228e-5
same,"initial velocity, Figure 3c i, Triplicate",Cph001 [4]; 0.5 mM CMN IIA,0.0001245 and 0.0001897 and 0.0001595
same,"initial velocity, Figure 3c ii, Triplicate",Cph001 [4]; 0.5 mM CMN IIA,6.636e-5 and 7.341e-5 and 7.765e-5
same,"initial velocity, Figure 3c i, Triplicate",Cph001 [4]; 0.7 mM CMN IIA,0.0002053 and 0.000222 and 0.0002263
same,"initial velocity, Figure 3c ii, Triplicate",Cph001 [4]; 0.7 mM CMN IIA,9.514e-5 and 7.693e-5 and 6.952e-5
same,"initial velocity, Figure 3c i, Triplicate",Cph001 [4]; 1 mM CMN IIA,0.0002288 and 0.0002649 and 0.0003551
same,"initial velocity, Figure 3c ii, Triplicate",Cph001 [4]; 1 mM CMN IIA,0.0001233 and 0.000121 and 0.0001065
same,"initial velocity, Figure 3c i, Triplicate",Cph001 [4]; 2 mM CMN IIA,0.0003304 and 0.0004291 and 0.0004233
same,"initial velocity, Figure 3c ii, Triplicate",Cph001 [4]; 2 mM CMN IIA,0.0002014 and 0.0002003 and 0.0001825
same,phosphorylation by Cph001 in couple enzyme assay,"Cph001 [4]; 2 mM antibiotic substrate, ATP as phosphate donor, absorbance at 340 nm",decrease in absorbance at 340 nm
same,"initial velocity, Figure 3c i, Triplicate",Cph001 [4]; 4 mM CMN IIA,0.0003294 and 0.0004402 and 0.000432
same,"initial velocity, Figure 3c ii, Triplicate",Cph001 [4]; 4 mM CMN IIA,0.0001744 and 0.0002267 and 0.0002057
same,"initial velocity, Figure 3c i, Triplicate",Cph001 [4]; 6 mM CMN IIA,0.0003263 and 0.0004514 and 0.0003777
same,"initial velocity, Figure 3c ii, Triplicate",Cph001 [4]; 6 mM CMN IIA,0.0002402 and 0.000232 and 0.000183
same,Km,"Cph001 [4]; ATP as phosphate donor (2 mM), pseudo-first-order conditions, mean ± SEM, n = 3, read-out: apparent Michaelis constant (Km) of CMN IIA",880 ± 200 µM
same,Km,"Cph001 [4]; ATP series, first manuscript version as quoted by Reviewer #1, read-out: measured Km of CMN IIA",876 µM
same,Km,"Cph001 [4]; GTP series, first manuscript version as quoted by Reviewer #1, read-out: measured Km of CMN IIA",1400 µM
same,Km,"Cph001 [4]; saturating GTP as phosphate donor (2 mM), mean ± SEM, n = 3, read-out: apparent Km of CMN IIA",1400 ± 240 µM
same,"absorbance at 340 nm, Average of triplicate",Cph001 [4]; time 00:00:00,1.495
same,"absorbance at 340 nm, Average of triplicate",Cph001 [4]; time 00:01:00,1.277
same,"absorbance at 340 nm, Average of triplicate",Cph001 [4]; time 00:02:00,0.9337
same,"absorbance at 340 nm, Average of triplicate",Cph001 [4]; time 00:03:00,0.6673
same,"absorbance at 340 nm, Average of triplicate",Cph001 [4]; time 00:04:00,0.5687
same,"absorbance at 340 nm, Average of triplicate",Cph001 [4]; time 00:05:00,0.52
same,"absorbance at 340 nm, Average of triplicate",Cph001 [4]; time 00:06:00,0.3975
same,"absorbance at 340 nm, Average of triplicate",Cph001 [4]; time 00:07:00,0.2841
same,"absorbance at 340 nm, Average of triplicate",Cph001 [4]; time 00:08:00,0.2044
same,"absorbance at 340 nm, Average of triplicate",Cph001 [4]; time 00:09:00,0.1613
same,"absorbance at 340 nm, Average of triplicate",Cph001 [4]; time 00:10:00,0.1364
same,"absorbance at 340 nm, Average of triplicate",Cph001 [4]; time 00:11:00,0.1231
same,"absorbance at 340 nm, Average of triplicate",Cph001 [4]; time 00:12:00,0.1177
same,"absorbance at 340 nm, Average of triplicate",Cph001 [4]; time 00:13:00,0.1173
same,"absorbance at 340 nm, Average of triplicate",Cph001 [4]; time 00:14:00,0.1173
same,"absorbance at 340 nm, Average of triplicate",Cph001 [4]; time 00:15:00,0.1177
same,zone of inhibition at 12.5 µg/disc,[5],17 mm
same,zone of inhibition at 50 µg/disc,[5],22 mm
same,zone of inhibition at 100 µg/disc,[5],24 mm
same,zone of inhibition at 200 µg/disc,[5],27.5 mm
